# Results: patent US20070092474A1, “Carnitine salt, preliposome which contains it and dermocosmetic formula for topical use based upon said carnitine salt” (priority 2003, published 2007)
# Several values for one entry are separate records, joined by “and”; a condition that tells them apart may be missing. Equal values may be shown once.
# System: skin blemishes caused by cellulite and localised adiposity
# Test: Liquid crystal contact thermography of the thighs, clinical score of cellulite stage
# Assay type: in vivo, female volunteers
# Set-up: key: 9: IV SERIOUS; 8: IV AVERAGE; 7: IV INITIAL; 6: III SERIOUS; 5: III AVERAGE; 4: III INITIAL; 3: II SERIOUS; 2: II AVERAGE; 1: II INITIAL
# Details: clinical score per volunteer, MEDIA = mean
# Description: A dermatological test was carried out on 25 female volunteers between 18 and 65 years of age, with the backing of the Department of Physiological and Pharmacological Sciences of the university of Pavia. The investigation aimed to check the modification of three anatomical-physiological parameters, qualifying the unaesthetic-functional aspect connected to the manifestation of so-called cellulite and subcutaneous hypertriglyceridaemia: measurement of the skin folds, measurement of the circumference of the thighs, thermographic skin measurement.
# The test stretched out over 60 days with the continual daily application of the aforementioned preparation of cosmetic gel. The measurements were carried out after 15, 30 and 60 days. The detail of the test protocol and of the results obtained is shown hereafter.
# 25 female volunteers aged between 18 and 65, with the presence of skin blemishes caused by cellulite and localised adiposity, were selected according to the following criteria: good general state of health, absence of skin pathologies, not being under medication, commitment not to vary the normal daily routine, no medical history of atopy.
# The samples were tested by uniformly applying them on “Glute SX Glute DJ (Femoris Posto SX Femoris Posto DX Femoris Ant. SX Femoris Ant. DX” every day at least once per day for the entire duration of the test.
# At the time of inclusion in the study and during the subsequent checks after 15 days (T15), after 30 days (T30) and after 60 days (T60) of treatment the following instrumental measurements were taken: • plicometry (through a plicometer) • thigh circumference (through a measuring tape broken into millimetres) • contact thermography (through liquid crystal thermographic plates).
# For its part, thermography allows the extension and the gravity of the microcirculatory skin damage and, consequently, the subcutaneous damage, to be evaluated based upon the regional skin temperature variations. Such temperature variations reveal the presence of subschemic areas (cold areas, due to regional hypothermia) or of phenomena of capillary-venous stasis (hot areas). The diagnostic properties of thermography are relative to the recognition of maldistribution of microcirculation. In particular, “liquid crystal contact thermography” was used, in which the property of cholesteric liquid crystals (of which the plates are made up) of modifying their spatial arrangement according to the temperature is exploited; each spatial modification corresponds to a different refraction of the light rays which thus assume different colours according to the incidence of the light on the faces of the cholesteric microcrystals: in practice, when the thermographic plates are placed upon the skin of the zone to be investigated, these assume different colourations according to the skin temperature. Conventionally, the thermographic images observed during the course of the different stages of evolution of the Edematous fibrosclerotic panniculopathy from stasis of the lower limbs can be classified in four, or more, thermographic stages; the latter approximately correspond to the gravity of the four istologic stages in which the moments of evolution of the panniculosis are divided.
substance,measurement,setting,value
carnitine hydroxycitrate [carnitine hydroxy citrate],LEFT THIGH THERMOGRAPHY 1/3 T0,,5 (9×) and 4 (3×) and 7 (4×) and 2 and 6 (7×) and 3
same,LEFT THIGH THERMOGRAPHY 1/3 T0,mean,5.3
same,LEFT THIGH THERMOGRAPHY 1/3 T15,,5 (9×) and 4 (5×) and 3 (3×) and 7 (2×) and 2 and 6 (5×)
same,LEFT THIGH THERMOGRAPHY 1/3 T15,mean,4.8
same,LEFT THIGH THERMOGRAPHY 1/3 T30,,2 (7×) and 4 (10×) and 3 (2×) and 6 (3×) and 5 (3×)
same,LEFT THIGH THERMOGRAPHY 1/3 T30,mean,3.7
same,LEFT THIGH THERMOGRAPHY 1/3 T60,,2 (11×) and 3 (7×) and 4 (4×) and 5 (2×) and 6
same,LEFT THIGH THERMOGRAPHY 1/3 T60,mean,3.0
same,LEFT THIGH THERMOGRAPHY 2/3 T0,,4 (5×) and 5 (10×) and 3 (3×) and 7 and 2 and 6 (5×)
same,LEFT THIGH THERMOGRAPHY 2/3 T0,mean,4.7
same,LEFT THIGH THERMOGRAPHY 2/3 T15,,3 (7×) and 4 (11×) and 5 (3×) and 6 (3×) and 2
same,LEFT THIGH THERMOGRAPHY 2/3 T15,mean,4.0
same,LEFT THIGH THERMOGRAPHY 2/3 T30,,2 (6×) and 3 (12×) and 4 (6×) and 5
same,LEFT THIGH THERMOGRAPHY 2/3 T30,mean,3.1
same,LEFT THIGH THERMOGRAPHY 2/3 T60,,2 (9×) and 3 (11×) and 4 (4×) and 1
same,LEFT THIGH THERMOGRAPHY 2/3 T60,mean,2.7
same,LEFT THIGH THERMOGRAPHY 3/3 T0,,3 (3×) and 5 (3×) and 4 (16×) and 2 (2×) and 7
same,LEFT THIGH THERMOGRAPHY 3/3 T0,mean,4.0
same,LEFT THIGH THERMOGRAPHY 3/3 T15,,3 (7×) and 4 (11×) and 5 (3×) and 2 (4×)
same,LEFT THIGH THERMOGRAPHY 3/3 T15,mean,3.5
same,LEFT THIGH THERMOGRAPHY 3/3 T30,,2 (7×) and 3 (11×) and 4 (5×) and 1 (2×)
same,LEFT THIGH THERMOGRAPHY 3/3 T30,mean,2.8
same,LEFT THIGH THERMOGRAPHY 3/3 T60,,1 (3×) and 3 (11×) and 2 (10×) and 4
same,LEFT THIGH THERMOGRAPHY 3/3 T60,mean,2.4
same,RIGHT THIGH THERMOGRAPHY 1/3 T0,,5 (10×) and 4 (3×) and 7 (3×) and 3 (2×) and 6 (6×) and 8
same,RIGHT THIGH THERMOGRAPHY 1/3 T0,mean,5.3
same,RIGHT THIGH THERMOGRAPHY 1/3 T15,,5 (9×) and 4 (6×) and 7 (3×) and 3 (2×) and 6 (5×)
same,RIGHT THIGH THERMOGRAPHY 1/3 T15,mean,5.0
same,RIGHT THIGH THERMOGRAPHY 1/3 T30,,2 (7×) and 4 (9×) and 3 (2×) and 5 (4×) and 6 (2×) and 7
same,RIGHT THIGH THERMOGRAPHY 1/3 T30,mean,3.8
same,RIGHT THIGH THERMOGRAPHY 1/3 T60,,2 (11×) and 3 (6×) and 4 (5×) and 5 (2×) and 6
same,RIGHT THIGH THERMOGRAPHY 1/3 T60,mean,3.0
same,RIGHT THIGH THERMOGRAPHY 2/3 T0,,4 (6×) and 5 (11×) and 7 and 3 (3×) and 6 (4×)
same,RIGHT THIGH THERMOGRAPHY 2/3 T0,mean,4.8
same,RIGHT THIGH THERMOGRAPHY 2/3 T15,,3 (5×) and 4 (12×) and 5 (4×) and 6 (3×) and 2
same,RIGHT THIGH THERMOGRAPHY 2/3 T15,mean,4.1
same,RIGHT THIGH THERMOGRAPHY 2/3 T30,,2 (4×) and 3 (13×) and 4 (7×) and 5
same,RIGHT THIGH THERMOGRAPHY 2/3 T30,mean,3.2
same,RIGHT THIGH THERMOGRAPHY 2/3 T60,,2 (8×) and 3 (12×) and 4 (4×) and 1
same,RIGHT THIGH THERMOGRAPHY 2/3 T60,mean,2.8
same,RIGHT THIGH THERMOGRAPHY 3/3 T0,,3 (4×) and 5 (4×) and 4 (15×) and 2 and 7
same,RIGHT THIGH THERMOGRAPHY 3/3 T0,mean,4.0
same,RIGHT THIGH THERMOGRAPHY 3/3 T15,,3 (7×) and 4 (11×) and 5 (3×) and 2 (4×)
same,RIGHT THIGH THERMOGRAPHY 3/3 T15,mean,3.5
same,RIGHT THIGH THERMOGRAPHY 3/3 T30,,2 (7×) and 3 (10×) and 4 (7×) and 1
same,RIGHT THIGH THERMOGRAPHY 3/3 T30,mean,2.9
same,RIGHT THIGH THERMOGRAPHY 3/3 T60,,1 (3×) and 3 (12×) and 2 (9×) and 4
same,RIGHT THIGH THERMOGRAPHY 3/3 T60,mean,2.4
